In patent US6727066B2, “Genes expressed in treated human C3A liver cell cultures” (Incyte Corporation, priority 2000, dated 2004):

Tested on: human C3A liver cell cultures
Test: Microarray differential expression of cDNAs in treated human C3A liver cell cultures
Type: cell-based
Details: change vs untreated C3A cells
Description: Incyte clones represent template sequences derived from the LIFESEQ GOLD assembled human sequence database (Incyte Genomics). In cases where more than one clone was available for a particular template, the 5′-most clone in the template was used on the microarray. The GENEALBUM GEM series 1-6 microarrays (Incyte Genomics) contain 52,616 array elements which represent 17,472 annotated clusters and 35,144 unannotated clusters. The HUMAN GENOME GEM series 1-3 microarrays (Incyte Genomics) contain 28,626 array elements which represent 10,068 annotated clusters and 18,558 unannotated clusters. For the UNIGEM series microarrays (Incyte Genomics), Incyte clones were mapped to non-redundant Unigene clusters (Unigene database (build 46), NCBI; Shuler (1997) J Mol Med 75:694-698), and the 5′ clone with the strongest BLAST alignment (at least 90% identity and 100 bp overlap) was chosen, verified, and used in the construction of the microarray. The UNIGEM V microarray (Incyte Genomics) contains 7075 array elements which represent 4610 annotated genes and 2,184 unannotated clusters.
To construct microarrays, cDNAs were amplified from bacterial cells using primers complementary to vector sequences flanking the cDNA insert. […] Amplified cDNAs were then purified using […]-400 columns (APB). Purified cDNAs were immobilized on polymer-coated glass slides. Glass microscope slides (Corning, Corning N.Y.) were cleaned by ultrasound in 0.1% SDS and acetone, with extensive distilled water washes between and after treatments. Glass slides were etched in 4% hydrofluoric acid (VWR Scientific Products, West Chester Pa.), washed thoroughly in distilled water, and coated with 0.05% aminopropyl silane (Sigma Aldrich) in 95% ethanol. Coated slides were cured in a 110° C. oven. cDNAs were applied to the coated glass substrate using a procedure described in U.S. Pat. No. 5,807,522. One microliter of the cDNA at an average concentration of 100 ng/ul was loaded into the open capillary printing element by a high-speed robotic apparatus which then deposited about 5 nl of cDNA per slide.
Microarrays were UV-crosslinked using a […] UV-crosslinker (Stratagene), and then washed at room temperature once in 0.2% SDS and three times in distilled water. Non-specific binding sites were blocked by incubation of microarrays in 0.2% casein in phosphate buffered saline (Tropix, Bedford Mass.) for 30 minutes at 60° C. followed by washes in 0.2% SDS and distilled water as before.
Early confluent C3A cells (ATTC, Manassas Va.) were treated with captopril (0.5, 2, 48, and 60 μg/ml) for 1, 3, and 6 hours. Early confluent C3A cells were treated with enalapril (0.5, 2, 48, and 60 μg/ml) for 1, 3, and 6 hours. Early confluent C3A cells were treated with LY294002 (0.5, 2, 15, and 25 μg/ml) for 1, 3, and 6 hours. Early confluent C3A cells were starved of insulin for 3 days prior to treatment, then treated with LY294002 (10 μM) for 2, 24, 36, and 72 hours in the presence of insulin. Early confluent C3A cells were treated with DES (1, 10, and 100 μM) for 1, 3, and 6 hours. Early confluent C3A cells were treated with dexamethasone (1 and 20 μM) for 0, 2, 6, and 24 hours. Early confluent C3A cells were treated with MCA (0.5 and 10 μM) for 2, 6, and 24 hours. In all cases mRNA from untreated early confluent cells were prepared in parallel as described below.
Cells were harvested and lysed in 1 ml of TRIZOL reagent (5×10^6 cells/ml; Life Technologies). The lysates were vortexed thoroughly and incubated at room temperature for 2-3 minutes and extracted with 0.5 ml chloroform. The extract was mixed, incubated at room temperature for 5 minutes, and centrifuged at 15,000 rpm for 15 minutes at 4° C. The aqueous layer was collected and an equal volume of isopropanol was added.

Question: For CC/C(=C(/CC)c1ccc(O)cc1)c1ccc(O)cc1 [DES, Diethylstilbestrol], which “expression level of cDNA clone 60123” value is on record?
Answer: The value was 2.6.

Question: And the “expression level of cDNA clone 172023” value?
Answer: Its value is 2.85.

Question: And the “expression level of cDNA clone 437481” value?
Answer: Its value is 2.24.

Question: And the “expression level of cDNA clone 443991” value?
Answer: The value was 2.62.

Question: And the “expression level of cDNA clone 510056” value?
Answer: Its value is 2.73.

Question: And the “expression level of cDNA clone 891322” value?
Answer: Its value is 3.81.

Question: What about the “expression level of cDNA clone 970905” value of the same molecule?
Answer: Its value is 2.25.

Question: And the “expression level of cDNA clone 1272483” value?
Answer: The value was 2.51.

Question: What about the “expression level of cDNA clone 1326255” value of the same molecule?
Answer: Its value is −2.7.

Question: And the “expression level of cDNA clone 1956982” value?
Answer: The value was −2.13.

Question: What about the “expression level of cDNA clone 2055867” value of the same molecule?
Answer: Its value is 2.97.

Question: And the “expression level of cDNA clone 2241825” value?
Answer: The value was −2.39.

Question: What about the “expression level of cDNA clone 2311213” value of the same molecule?
Answer: The value was −2.34.

Question: What about the “expression level of cDNA clone 2545486” value of the same molecule?
Answer: Its value is −2.49.

Question: What about the “expression level of cDNA clone 2550767” value of the same molecule?
Answer: Its value is 2.1.

Question: What about the “expression level of cDNA clone 2956444” value of the same molecule?
Answer: The value was 2.1.

Question: And the “expression level of cDNA clone 3222802” value?
Answer: The value was 2.4.

Question: And the “expression level of cDNA clone 4019706” value?
Answer: The value was 2.99.

Question: And the “expression level of cDNA clone 4287327” value?
Answer: Its value is 2.66.

Question: What about the “expression level of cDNA clone 4715924” value of the same molecule?
Answer: Its value is −2.21.

Question: And the “expression level of cDNA clone 5293028” value?
Answer: Its value is −2.3.

Question: And the “expression level of cDNA clone 5399371” value?
Answer: The value was −2.63.

Question: What about the “expression level of cDNA clone 293477” value (table row r18) of the same molecule?
Answer: The value was 2.83.

Question: And the “expression level of cDNA clone 293477” value (table row r23)?
Answer: The value was 2.

Question: Which “expression level of cDNA clone 63038” value does the source give for CC(C)OC(=O)C(C)(C)Oc1ccc(C(=O)c2ccc(Cl)cc2)cc1 [Fenofibrate, fenofibrate] here?
Answer: The value was −2.9.

Question: And the “expression level of cDNA clone 280932” value?
Answer: The value was −2.67.

Question: What about the “expression level of cDNA clone 437481” value of the same molecule?
Answer: Its value is 2.44.

Question: What about the “expression level of cDNA clone 443991” value of the same molecule?
Answer: Its value is 2.47.

Question: And the “expression level of cDNA clone 450856” value?
Answer: The value was 2.49.

Question: What about the “expression level of cDNA clone 452321” value of the same molecule?
Answer: Its value is 3.

Question: And the “expression level of cDNA clone 480791” value?
Answer: The value was −2.27.

Question: What about the “expression level of cDNA clone 630625” value of the same molecule?
Answer: Its value is 3.95.

Question: What about the “expression level of cDNA clone 970905” value of the same molecule?
Answer: The value was −4.06.

Question: What about the “expression level of cDNA clone 1315663” value of the same molecule?
Answer: Its value is −4.02.

Question: And the “expression level of cDNA clone 1619292” value?
Answer: The value was −5.

Question: And the “expression level of cDNA clone 1705208” value?
Answer: Its value is 2.83.

Question: What about the “expression level of cDNA clone 1846463” value of the same molecule?
Answer: The value was 6.58.

Question: What about the “expression level of cDNA clone 1969563” value of the same molecule?
Answer: Its value is 6.8.

Question: And the “expression level of cDNA clone 1975268” value?
Answer: Its value is −2.42.

Question: What about the “expression level of cDNA clone 2042056” value of the same molecule?
Answer: The value was 5.46.

Question: And the “expression level of cDNA clone 2055569” value?
Answer: Its value is −3.12.

Question: And the “expression level of cDNA clone 2055867” value?
Answer: The value was −3.4.

Question: What about the “expression level of cDNA clone 2123516” value of the same molecule?
Answer: Its value is 4.6.

Question: What about the “expression level of cDNA clone 2234853” value of the same molecule?
Answer: Its value is −2.7.

Question: What about the “expression level of cDNA clone 2360580” value of the same molecule?
Answer: Its value is −4.5.

Question: And the “expression level of cDNA clone 2382195” value?
Answer: The value was −2.87.

Question: What about the “expression level of cDNA clone 2399162” value of the same molecule?
Answer: Its value is −2.5.

Question: And the “expression level of cDNA clone 2448149” value?
Answer: The value was −2.35.

Question: And the “expression level of cDNA clone 2513883” value?
Answer: Its value is 4.47.

Question: And the “expression level of cDNA clone 2607921” value?
Answer: The value was −3.2.

Question: And the “expression level of cDNA clone 2757583” value?
Answer: The value was 4.75.

Question: And the “expression level of cDNA clone 2769888” value?
Answer: Its value is −3.17.

Question: And the “expression level of cDNA clone 2929484” value?
Answer: Its value is −2.89.

Question: And the “expression level of cDNA clone 2957205” value?
Answer: Its value is 2.44.

Question: And the “expression level of cDNA clone 3222802” value?
Answer: Its value is 2.55.

Question: And the “expression level of cDNA clone 3272165” value?
Answer: Its value is −2.57.

Question: And the “expression level of cDNA clone 4287327” value?
Answer: Its value is −3.14.

Question: What about the “expression level of cDNA clone 4556538” value of the same molecule?
Answer: Its value is 2.53.

Question: What does the source list for C[C@@H]1C[C@H]2[C@@H]3CCC4=CC(=O)C=C[C@]4(C)[C@@]3(F)[C@@H](O)C[C@]2(C)[C@@]1(O)C(=O)CO [Dexamethasone]?
Answer: expression level of cDNA clone 26474: −4.2; expression level of cDNA clone 63038: −2.36; expression level of cDNA clone 118501: 2.79; expression level of cDNA clone 167081: 2.14; expression level of cDNA clone 172023: −5.8; expression level of cDNA clone 237027: −2.85; expression level of cDNA clone 630625: 2.52; expression level of cDNA clone 990375: −2.5; expression level of cDNA clone 1379063: −3.42; expression level of cDNA clone 1381654: 2.57; expression level of cDNA clone 1441245: −2.3; expression level of cDNA clone 1448718: −3.1; expression level of cDNA clone 1468660: −3.3; expression level of cDNA clone 1559756: 2.47; expression level of cDNA clone 1616783: 2.55; expression level of cDNA clone 1619292: −4.4; expression level of cDNA clone 1623214: −2.25; expression level of cDNA clone 1630990: 2.86; expression level of cDNA clone 1696224: 2.83; expression level of cDNA clone 1786554: 2.66; expression level of cDNA clone 1833362: −3.7; expression level of cDNA clone 1834236: −2.3; expression level of cDNA clone 1846209: 2.2; expression level of cDNA clone 1890576: −2.5; expression level of cDNA clone 1975268: −3.35; expression level of cDNA clone 1998269: 2.44; expression level of cDNA clone 2046717: 2.8; expression level of cDNA clone 2048551: 2.91; expression level of cDNA clone 2120743: 3.25; expression level of cDNA clone 2123516: 2.66; expression level of cDNA clone 2160794: −2.51; expression level of cDNA clone 2195427: 2.3; expression level of cDNA clone 2343348: 2.18; expression level of cDNA clone 2470485: −2.8; expression level of cDNA clone 2513883: 3.93; expression level of cDNA clone 2660756: 2.21; expression level of cDNA clone 2757583: 4.93; expression level of cDNA clone 2822027: 3; expression level of cDNA clone 2921991: −2.95; expression level of cDNA clone 2925373: −2.63; expression level of cDNA clone 2933775: 4.32; expression level of cDNA clone 3028719: −2.6; expression level of cDNA clone 3084204: −2.47; expression level of cDNA clone 3109384: 2.6; expression level of cDNA clone 3170010: −3.67; expression level of cDNA clone 3284411: −2.4; expression level of cDNA clone 3715059: −3.17; expression level of cDNA clone 4091186: 2.45; expression level of cDNA clone 4508879: 2.86; expression level of cDNA clone 5399371: 2.63
